Test results published in patent US11832638B2, “N-acyl derivatives of gamma amino-butyric acid and beta alanine as food flavouring compounds” (GIVAUDAN SA, priority 2012, dated 2023).

How the values were obtained:
[1] = Tasting in soy based product (salt reduced kikoman soy sauce)
Description: (§1) The following formulations were prepared and tasted by trained panelists.
Salt level pure product between 5-40%
Salt level in application 0.3-1.0%
C18:2-gaba-(0.5 ppm) was added to a 1% diluted salt reduced kikoman soy sauce (9% salt).
C18:2-gaba-(0.5 ppm) was added to pure salt reduced kikoman soy sauce (9% salt).

[2] = Tasting in low fat salad dressing; conditions: 0.5 PPM in low fat salad dressing (13.6% fat)
Description: as §1
low fat salad dressing (13.6% Fat)

Tasting of baked pizza = conditions: 0.5 PPM in the crust and 0.5 PPM in the tomato sauce, baked in hot air oven at 200 degrees Celsius
Text: Differentiator high temperature 100-250 degrees Celsius in hot air baking process
C18:2-gaba @ 0.5 PPM in the crust and @ 0.5 PPM in the tomato sauce
The pizza was topped off with cheese and baked in a hot air oven @ 200 degrees Celsius

[3] = Tasting in air expanded base with cheese seasoning; conditions: air expanded base 3% fat
Description: Air Expanded Base An air expanded base (Rice, wheat, Tapioca, potato, salt, sugar, modified starch), containing 3% fat and flavored with cheese seasoning containing salt, MSG, dairy, organic acids, sugars and flavor. The following compounds were added to the base at the indicated levels and the tasting results are reported: […]

[4] = UHT milk cream flavoured, non sweetened, different fat levels; conditions: 2 ppm, cream flavour 0.03%
Description: The following tests were carried out on dairy products processed by fermentation, pasteurization or UHT. The products contain fat, protein and calcium.
UHT Milk Cream Flavoured, Non Sweetened and Different Fat Levels
In a UHT milk containing 0% 1.5% and 3% fat, flavoured with a proprietary cream flavour dosed at 0.03%
C18:2-gaba was added at 2 ppm.
Samples were evaluated by expert tasters.
Tasters were asked to describe the samples focusing on authentic taste , mouthfeel, fullness, salivation, sweetness, juiciness, richness, long lastingness and fattiness.

[5] = UHT sweetened banana flavoured milk, different fat levels; conditions: banana flavour 0.04%
Description: UHT Sweetened Banana Flavoured Milk, With Different Fat Levels
In a UHT milk with 0% and 3% fat sweetened with 4% sucrose by weight, flavoured with proprietary banana flavour dosed at 0.04%. C18:2 gaba was added at 0.25 ppm, 0.5 ppm and 1 ppm.
Samples were evaluated by expert tasters. Tasters were asked to describe the samples focusing on authentic taste, mouthfeel, fullness, salivation, sweetness, juiciness, richness, long lastingness and fattiness.

[6] = Strawberry flavoured sugar sweetened yoghurt; conditions: 2 ppm, 1.5% fat yoghurt base, 8% sucrose, strawberry flavour 0.015%
Text: Strawberry Flavoured Sugar Sweetened Yoghurt
The base consisted of a 1.5% fat yoghurt base, sweetened with 8% sucrose by weight, flavoured with a proprietary strawberry flavour @ 0.015%.

Soy milk = conditions: 2 ppm, 5% sucrose, milk flavor 0.1%
Description: In a soy milk sweetened with 5% sucrose by weight, flavoured with a proprietary milk flavour at a dosage of 0.1%, C18:2-gaba was added at 2 ppm
Samples were evaluated by expert tasters. Tasters were asked to describe the samples focusing on authentic taste , mouthfeel, fullness, salivation, sweetness, juiciness, richness, long lastingness and fattiness.

[7] = Test on Tang powdered soft drink; conditions: 0.5 ppm, orange flavoured Tang
Description: In an orange flavoured Tang powdered soft drink (market product) sweetened with sucrose plus high intensity sweetener and containing citric acid and C18:2-gaba.
All samples were evaluated by expert tasters. Tasters were asked to describe the samples focusing on authentic taste, mouthfeel & body, enhancement, richness, juiciness, long lastingness, salivation, sweetness, masking off notes of high intensity sweetener
Base is Orange flavoured Tang

[8] = Mango flavoured still beverage with different levels of juice; conditions: 1 ppm, 8% sucrose, 0.1% citric acid, mango flavor 0.05%
Description: Mango Flavoured Still Beverage Containing Different Levels Of Juice.
In a Mango flavoured still beverage, sweetened with 8% sucrose and containing 0.1% citric acid and 1%, 4% and 6% clear mango juice flavoured with a proprietary Mango flavour @ 0.05%, C18:2-gaba was added, as such.
All samples were evaluated by expert tasters. Tasters were asked to describe the samples focusing on authentic taste, juicy mouthfeel, enhancement, richness, juiciness, long lastingness, salivation, sweetness.
In a Mango flavoured still beverage, sweetened with 8% sucrose & containing 0.1% citric acid and 1% clear mango juice flavoured with proprietary Mango flavour @ 0.05%, C18:2-gaba was added, as such.
Base is water, 8% sucrose, 0.1% citric acid, 1% clear mango juice (very low juice %) , flavoured with Mango flavor, dosed at 0.05%
In a Mango flavoured still beverage, sweetened with 8% sucrose & containing 0.1% citric acid and 4% clear mango juice flavoured with Mango flavour @ 0.05% , C18:2-gaba and C18:2-Pro were added, as such (separate) and in combination.
Base is water, 8% sucrose, 0.1% citric acid, 4% clear mango juice (30% reduced juice), flavoured with Mango flavor, dosed at 0.05%
A Mango-flavoured still beverage, sweetened with 8% sucrose & containing 0.1% citric acid and 6% clear mango juice flavoured with Mango flavour @ 0.05%, C18:2-gaba
Base is water, 8% sucrose, 0.1% citric acid, 6% clear mango juice (full juice), flavoured with Mango flavor, dosed at 0.05%.

[9] = Test on Baileys cream liqueur; conditions: 1 ppm
Description: Test on Baileys Cream Liqueur:
In Baileys cream liqueur (Market Product) C18:2-gaba was added at 1 ppm.
Samples were evaluated by expert tasters. Tasters were asked to describe the samples focusing on authentic taste, alcohol impact, mouthfeel, fullness, salivation, sweetness, bitterness, richness, long lastingness and fattiness.
Base is Baileys cream liqueur

Test on Breezer Orange = conditions: 0.5 ppm
Description: Samples were evaluated by expert tasters. Tasters were asked to describe the samples focusing on authentic taste, alcohol impact, juiciness, mouthfeel, fullness, salivation, sweetness, bitterness, richness, long lastingness and fattiness.

Test on Eru Prestige = conditions: 0.5 ppm
[10] = Comparison in beef bouillon; conditions: 2 ppm, Maggi beef bouillon 1 tablet in 500 ml hot water
Description: Comparison in Beef Bouillon
Base is Maggi beef bouillon 1 tablet in 500 ml of hot water

[11] = Test in a strawberry yoghurt; conditions: 2 ppm, 1.5% fat yoghurt, 8% sucrose, strawberry flavour 0.015%
Text: Test in a Strawberry Yoghurt
Base: Yoghurt 1.5% fat yoghurt, 8% sucrose, proprietary strawberry flavour @ 0.015%

Structure (SMILES): CCCCC/C=C\C/C=C\CCCCCCCC(=O)NCCCC(=O)O [C18:2-gaba]
- tasting result (trained panelists) ([1]; 0.5 ppm in 1% diluted salt reduced kikoman soy sauce (9% salt)): stronger, more umami, long lasting, richer
- tasting result (trained panelists) ([1]; 0.5 ppm in pure salt reduced kikoman soy sauce (9% salt)): strong in body and mouthfeel,and more salty
- tasting result (trained panelists) [2]: better mouthfeel that was impressively creamy
- taste of crust, tomato and aftertaste of pizza (Tasting of baked pizza): less dry, more succulent and the tomato was richer, sweeter and the total lingering aftertaste was very rich and pleasant
- tasting result ([3]; 0.5 ppm): Increased dairy, cheese
- tasting result ([3]; 1 ppm): Fatty full, cheesy, cheese crust, long lasting, cover base
- description by expert tasters ([4]; UHT milk 0% fat): Very creamy, milky, long lasting
- description by expert tasters ([4]; UHT milk 1.5% fat): very creamy, milky, long lasting, salivating
- description by expert tasters ([4]; UHT milk 3.0% fat): very creamy, milky, long lasting, taste like whipped cream
- description by expert tasters ([5]; 0.25 ppm, UHT milk 0% fat): fuller banana, more authentic, more sweet
- description by expert tasters ([5]; 0.25 ppm, UHT milk 3% fat): more authentic, less estery and more round
- description by expert tasters ([5]; 0.5 ppm, UHT milk 0% fat): fuller banana, authentic, creamy and sweet
- description by expert tasters ([5]; 0.5 ppm, UHT milk 3% fat): creamy banana
- description by expert tasters ([5]; 1 ppm, UHT milk 0% fat): creamy, creamy banana, sweet aftertaste
- description by expert tasters ([5]; 1 ppm, UHT milk 3% fat): creamy long lasting and more authentic and more impact
- taste description [6]: very creamy and fresh strawberry
- description by expert tasters (Soy milk): clean, creamy, good masking of the soy bean taste, creamy and milky
- description by expert tasters [7]: enhances sweet juicy orange notes, enhanced mouthfeel. Additionally, the off-notes of the high intensity sweetener were suppressed
- description by expert tasters ([8]; 1% clear mango juice): fatty skin-like, very juicy, authentic mango, much more mouthfeel, long lasting mango taste, mouthfeel is close to the full juice product
- description by expert tasters ([8]; 4% clear mango juice): fatty skin-like, very juicy, authentic mango, long lasting mango taste, more mouthfeel than the full juice product
- description by expert tasters ([8]; 6% clear mango juice (full juice)): fatty skin-like, very thick juicy, authentic mango, long lasting mango taste, rich
- description by expert tasters [9]: strongly enhanced alcohol effect, more cocoa, very creamy and long lasting aftertaste
- description by expert tasters (Test on Breezer Orange): more alcoholic, sweeter, more juicy orange, less soapy
- taste description (Test on Eru Prestige): full salty, much more cheese bite, umami, lingering, long lasting
- taste description [10]: salty, savoury, full
- taste description [11]: creamy, fruity authentic strawberry , stronger strawberry, ripe, long lasting, juicy
